Reference: patent US20090118261A1, “QUINAZOLINONE DERIVATIVES AND THEIR USE AS B-RAF INHIBITORS” (ASTRAZENECA AB, priority 2004, published 2009)

Biological target: T1, human recombinant, purified wild type His-B-Raf protein kinase (Homo sapiens, UniProt P15056)
T1 construct: His
Assay: B-Raf In Vitro ELISA Assay
Type: biochemical
Conditions: phosphorylation of MEK1; 2.5 nM B-Raf, 0.15 μM MEK1, 10 μM ATP
Procedure: B-Raf In Vitro ELISA Assay
Activity of human recombinant, purified wild type His-B-Raf protein kinase was determined in vitro using an enzyme-linked immunosorbent assay (ELISA) assay format, which measures phosphorylation of the B-Raf substrate, human recombinant, purified His-derived (detagged) MEK1. The reaction utilized 2.5 nM B-Raf, 0.15 μM MEK1 and 10 μM adenosine triphosphate (ATP) in 40 mM N-(2-hydroxyethyl)piperazine-N′-(2-ethanesulfonic acid hemisodium salt (HEPES), 5 mM 1,4-dithio-DL-threitol (DTT), 10 mM MgCl2, 1 mM ethylenediaminetetraacetic acid (EDTA) and 0.2M NaCl (1×HEPES buffer), with or without compound at various concentrations, in a total reaction volume of 25 μl in 384 well plates. B-Raf and compound were preincubated in 1×HEPES buffer for 1 hour at 25° C. Reactions were initiated with addition of MEK1 and ATP in 1×HEPES buffer and incubated at 25° C. for 50 minutes and reactions stopped by addition of 10 μl 175 mM EDTA (final concentration 50 mM) in 1×HEPES buffer. 5 μl of the assay mix was then diluted 1:20 into 50 mM EDTA in 1×HEPES buffer, transferred to 384 well black high protein binding plates and incubated for 12 h at 4° C. Plates were washed in tris buffered saline containing 0.1% Tween20 (TBST), blocked with 50 μl Superblock (Pierce) for 1 hour at 25° C., washed in TBST, incubated with 50 μl rabbit polyclonal anti-phospho-MEK antibody (Cell Signaling) diluted 1:1000 in TBS for 2 h at 25° C., washed with TBST, incubated with 50 μl goat anti-rabbit horseradish peroxidase-linked antibody (Cell Signaling) diluted 1:2000 in TBS for 1 hour at 25° C. and washed with TBST. 50 μl of fluorogenic peroxidase substrate (Quantablu—Pierce) was added and following incubation for 45-60 mins, 50 μl QuantabluSTOP (Pierce) was added. Blue fluorescent product was detected at excitation 325 nm and emission 420 nm using a TECAN Ultra plate reader. Data was graphed and IC50s calculated using Excel Fit (Microsoft).

T1 sequence (P15056 whole entry): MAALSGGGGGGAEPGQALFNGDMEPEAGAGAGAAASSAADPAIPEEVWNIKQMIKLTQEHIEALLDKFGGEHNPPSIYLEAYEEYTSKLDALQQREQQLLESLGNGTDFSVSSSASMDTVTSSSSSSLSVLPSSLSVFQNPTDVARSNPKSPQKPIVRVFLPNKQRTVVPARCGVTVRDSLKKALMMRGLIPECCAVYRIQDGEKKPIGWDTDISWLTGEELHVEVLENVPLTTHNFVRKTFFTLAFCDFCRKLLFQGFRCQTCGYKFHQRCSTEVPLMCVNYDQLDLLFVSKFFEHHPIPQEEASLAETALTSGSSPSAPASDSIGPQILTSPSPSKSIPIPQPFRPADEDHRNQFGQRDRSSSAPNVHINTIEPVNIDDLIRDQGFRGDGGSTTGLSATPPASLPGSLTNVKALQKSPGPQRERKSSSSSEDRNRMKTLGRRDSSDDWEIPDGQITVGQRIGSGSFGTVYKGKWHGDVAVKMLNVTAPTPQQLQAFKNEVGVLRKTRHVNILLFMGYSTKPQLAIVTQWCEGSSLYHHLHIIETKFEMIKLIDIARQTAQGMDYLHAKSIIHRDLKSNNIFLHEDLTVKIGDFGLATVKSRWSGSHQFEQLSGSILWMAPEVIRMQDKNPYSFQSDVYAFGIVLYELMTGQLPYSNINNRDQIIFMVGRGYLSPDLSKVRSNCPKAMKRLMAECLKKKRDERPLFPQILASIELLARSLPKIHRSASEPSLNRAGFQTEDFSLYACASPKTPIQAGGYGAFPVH

IC50 [nM]	SMILES
347	Cc1ccc(NC(=O)c2cccc(C(C)(C)C#N)c2)cc1Nc1ccc2ncn(CCCN3CCOCC3)c(=O)c2c1 [Example 7, 3-(1-Cyano-1-methylethyl)-N-(4-methyl-3-{[3-(3-morpholin-4-ylpropyl)-4-oxo-3,4-dihydroquinazolin-6-yl]amino}phenyl)-benzamide]
186	Cc1nc2ccc(Nc3cc(NC(=O)c4cccc(C(C)(C)C#N)c4)ccc3C)cc2c(=O)[nH]1 [Example 4, 3-(1-Cyano-1-methylethyl)-N-{4-methyl-3-[(2-methyl-4-oxo-3,4-dihydroquinazolin-6-yl)amino]phenyl}-benzamide]
1930	Cc1ccc(NC(=O)c2cccc(C(C)(C)C#N)c2)cc1N(C)c1ccc2ncn(C)c(=O)c2c1 [Example 33, 3-(Cyano-dimethyl-methyl)-N-{4-methyl-3-[methyl-(3-methyl-4-oxo-3,4-dihydro-quinazolin-6-yl)-amino]-phenyl}-beazamide]
